The record followed here is patent US6087364A, “Dopamine D4 receptor antagonists” (Warner-Lambert Company, priority 1998, dated 2000).

Experiment [1] addresses T1, human recombinant dopamine D4.2 receptor (Homo sapiens, UniProt P21917, DEL265-296).
T1 construct: expressed in transfected cells
T1 sequence (P21917 with tags, fused parts or gaps DEL265-296): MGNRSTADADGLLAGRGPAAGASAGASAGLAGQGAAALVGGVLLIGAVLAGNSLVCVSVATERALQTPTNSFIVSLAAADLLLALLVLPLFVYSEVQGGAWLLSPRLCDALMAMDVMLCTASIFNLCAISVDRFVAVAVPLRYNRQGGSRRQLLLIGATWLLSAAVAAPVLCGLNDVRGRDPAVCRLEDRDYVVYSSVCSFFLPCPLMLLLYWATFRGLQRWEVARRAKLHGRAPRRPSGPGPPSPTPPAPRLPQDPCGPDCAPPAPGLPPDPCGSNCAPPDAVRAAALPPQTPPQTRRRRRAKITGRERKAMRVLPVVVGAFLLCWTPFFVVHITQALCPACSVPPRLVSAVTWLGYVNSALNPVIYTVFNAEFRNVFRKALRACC
Kind of experiment: D4.2 dopamine receptor binding assay ([3H]spiperone, membranes of CHO K1 cells). To be noted: human D4.2 receptor, 0.2 nM [3H]spiperone, 60 min, 25° C., apparent Ki from IC50 (Cheng and Prusoff). From the text:
(§1) A cell line expressing human dopamine D2 (Long form) receptors was purchased from Oregon Health Sciences University, Portland, Oreg. The D2 receptor cDNA was subcloned into an expression vector, pRc/CMV. The plasmids were transfected by electroporation into CHO K1 cells. A single stable transfectant, resistant to the antibiotic G418, was isolated and selected for use in the binding studies. For D4 binding, CHO K1 cells stably transfected to express the human recombinant dopamine D4.2 receptor subtype, as described by Shih, et al., "The Expression and Functional Characterization of Human Dopamine D4.2 Receptor in CHO K1 Cells," Soc. Neurosci., 21(Part 1): 621 (1995).
(§2) CHO K1 cells expressing either human D2 and D4.2 receptors were grown in 162 cm^2 culture flasks in F12 medium (Gibco Laboratories, Grand Island, N.Y.) supplemented with 10% fetal bovine serum (FBS, Hyclone, Logan, Utah) in an atmosphere of 5% CO2 /95% air at 37° C. Cells were grown until confluent, after which growth medium was removed and replaced with 0.02% ethylene diamine tetracetate (EDTA) in a phosphate-buffered saline solution (Sigma Chemical Co., St. Louis, Mo.) and scraped from the flasks. The cells were centrifuged at about 1000× g for 10 minutes at […] and then resuspended in TEM buffer (25 mM Tris-HCl, pH 7.4, 5 mM EDTA, and 6 mM MgCl2) for D2 or the D4.2 buffer (50 mM Tris-HCl, pH 7.4, 5 mM EDTA, 1.5 mM CaCl2, 5 mM KC1, and 120 mM NaCl) and homogenized. The membranes were pelleted by centrifugation at 20,000× g at […] for 20 minutes. Then the pellets were resuspended in appropriate buffer at 1 mL/flask and stored at -70° C. until used in the receptor binding assay.
(§3) After 60 minutes incubation at 25° C., the incubations were terminated by rapid filtration through Whatmann GF/B glass fibre filters (soaked for 1 hour in 0.5% polyethylenimine) on a cell harvester, with three washes of 1 mL ice-cold buffer. Individual filter disks containing the bound ligand were placed in counting vials with 4 mL of scintillation fluid (Ready Gel, Beckman Instrument Inc., Fullerton, Calif.) and then counted in a Beckman LS-6800 liquid scintillation counter at an efficiency of 45%. Nonspecific binding was defined in presence of 1 mM of haloperidol.
(§4) Saturation and competition binding data were analyzed using an iterative nonlinear least-square curve-fitting Ligand program. […] Experimental compounds were made up as stock solutions in dimethyl sulfoxide (DMSO). […] Each observation was carried out in triplicate. To allow these calculations, Kd values were measured for the interaction of various ligands with the receptor.

Experiment [2] concerns amphetamine-stimulated locomotion. Kind of experiment: Blockade of Amphetamine-Stimulated Locomotion (BASL) in Rats. The settings on record: Rattus norvegicus, 0.5 h, read-out: BASL ED50, mg/kg PO (dose which would reverse amphetamine-stimulated locomotion by 50%), drug 30 minutes prior to test, amphetamine 0.5 mg/kg IP 15 minutes prior to test, 30 minute test. In kind it is in vivo, Male Sprague-Dawley rats. From the text: Blockade of Amphetamine-Stimulated Locomotion (BASL) in Rats
Hyperactivity of brain dopamine (DA) neuronal systems is believed to contribute to the symptomology of schizophrenia. This hypothesis is supported, in part, by the ability of drugs such as the indirect DA agonist, amphetamine, to exacerbate schizophrenia. The stimulatory effect of amphetamine can be blocked by one of two mechanisms: a postsynaptic blockade of DA receptors, or by the action of DA autoreceptor agonists at inhibitory presynaptic DA receptor sites. Currently available antipsychotic drugs are DA receptor antagonists; however, these compounds can also cause extrapyramidal side effects apparently due to complete postsynaptic receptor blockade. Antipsychotic agents produce sedation (manifested as decreased locomotion) in normal animals, as well as in animals treated with psychomotor stimulants by reducing the access of endogenous DA to postsynaptic receptors in the brain.
Male Sprague-Dawley rats (Harlan Labs) were used for these studies. Drugs were dissolved in saline or water and administered either orally (PO) or intraperitoneally (IP) in volumes of 5 mL/kg. Saline control rats and amphetamine (0.5 mg/kg IP) control rats are included with each study (n=4-6 rats per treatment group). for the IP studies, amphetamine is given 20 minutes prior to the drug, after which a 30 minute locomotor activity test is conducted. For the oral study, drug is dosed 30 minutes prior to test, while amphetamine is given 15 minutes prior to test, which allows time for oral absorption. Locomotor activity (centimeters travelled per 30 minute test) is measured in 16"×16" open chambers. Amphetamine generally produces a 2- to 3-fold increase in locomotion over saline controls. Drug effects are reported as percent reversal of amphetamine-stimulated locomotion. Significant changes in amphetamine-stimulated locomotion, relative to amphetamine-treated controls, were determined by t-test.

For experiment [3], the target named is human dopamine D2 (Long form) receptor (Homo sapiens, UniProt P14416). Kind of experiment: D2 dopamine receptor binding assay ([3H]spiperone, membranes of CHO K1 cells).
From the text: as §1, §2, §3, §4

Read-outs that look alike come from different tables or passages of the source. Some results are limits rather than exact numbers.

Chain of human dopamine D2 (Long form) receptor (P14416 whole entry): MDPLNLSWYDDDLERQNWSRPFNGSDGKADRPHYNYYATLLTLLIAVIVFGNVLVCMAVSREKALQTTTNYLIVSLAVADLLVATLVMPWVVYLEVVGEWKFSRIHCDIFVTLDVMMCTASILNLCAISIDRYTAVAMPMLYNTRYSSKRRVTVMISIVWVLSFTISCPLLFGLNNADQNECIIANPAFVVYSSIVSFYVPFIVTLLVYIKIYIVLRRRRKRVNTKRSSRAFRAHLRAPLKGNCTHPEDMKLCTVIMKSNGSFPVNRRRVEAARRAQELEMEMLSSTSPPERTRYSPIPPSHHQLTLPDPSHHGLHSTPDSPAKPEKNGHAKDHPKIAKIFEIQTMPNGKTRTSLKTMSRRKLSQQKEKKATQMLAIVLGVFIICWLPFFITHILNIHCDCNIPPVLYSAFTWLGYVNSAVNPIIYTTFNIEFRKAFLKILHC

In the case of `Cc1ccc(N2CCN(CCC3NC(=O)c4ccccc43)CC2)cc1C` (single isomer, unassigned; (+)) [(+)-3-{2-[4-(3,4-Dimethyl-phenyl)-piperazin-1-yl]-ethyl}-2,3-dihydro-isoindol-1-one], in experiment [1], the Ki was 42 nM. Regarding `Cc1ccc(N2CCN(CCC3NC(=O)c4ccccc43)CC2)cc1C` (single isomer, unassigned; (-)) [(-)-3-{2-[4-(3,4-Dimethyl-phenyl)-piperazin-1-yl]-ethyl}-2,3-dihydro-isoindol-1-one], in experiment [1], the Ki came to 7.8 nM. Also, the ED50 in experiment [2] came out at 1.5 mg/kg. As to `Cc1nc(N2CCN(CCC3NC(=O)c4ccccc43)CC2)sc1C` (stereo not drawn) [3-[2-(4-(4,5-Dimethyl-thiazol-2-yl)-piperazin-1-yl)-ethyl]-2,3-dihydro-isoindol-1-one], the Ki is 20.8 nM in experiment [1] and greater than 5880 nM in experiment [3]. With `O=C1NC(CCN2CCC(=C(c3ccccc3)c3ccccc3)CC2)c2ccccc21` (stereo not drawn) [3-[2-(4-(Diphenylmethylene)-piperidin-1-yl)-ethyl]-2,3-dihydro-isoindol-1-one], the Ki in experiment [1] was 99.7 nM; in experiment [3] it was 2150 nM.

For the compound `Cc1ccc(N2CCN(CCC3NC(=O)c4ccccc43)CC2)cc1` (stereo not drawn) [3-[2-(4-P-Tolyl-piperazin-1-yl)-ethyl]-2,3-dihydro-isoindol-1-one], the Ki in experiment [1] is 12.4 nM; in experiment [3] it was greater than 5880 nM. Besides, the ED50 in experiment [2] is less than 1 mg/kg. In the case of `O=C1NC(CCN2CCN(c3ccccc3)CC2)c2ccccc21` (stereo not drawn) [3-[2-(4-Phenyl-piperazin-1-yl)-ethyl]-2,3-dihydro-isoindol-1-one], in experiment [1], the Ki was 24.5 nM. For the compound `O=C1NC(CCN2CCN(c3ccc(Cl)cc3)CC2)c2ccccc21` (stereo not drawn) [3-[2-(4-p-Chlorophenyl-piperazin-1-yl)-ethyl]-2,3-dihydro-isoindol-1-one], the Ki in experiment [1] was 27.8 nM; in experiment [3], greater than 5880 nM. With `COc1ccc(N2CCN(CCC3c4ccccc4C(=O)N3C)CC2)cc1` (stereo not drawn) [3-[2-(4-p-Methoxyphenyl-piperazin-1-yl)-ethyl]-2,3-dihydro-2-methyl-isoindol-1-one], the values for the Ki in experiment [1] and in experiment [3] were 37.3 nM and greater than 5880 nM, respectively. As for `Cc1ccc(N2CCN(CCC3NC(=O)c4ccccc43)CC2)cc1C` (stereo not drawn) [3-{2-[4-(3,4-Dimethyl-phenyl)-piperazin-1-yl]-ethyl}-2,3-dihydro-isoindol-1-one], in experiment [1], the Ki amounted to 8.77 nM. Further, the ED50 in experiment [2] was found to be 3 mg/kg. On to `Cc1ccc(C2CCN(CCC3NC(=O)c4ccccc43)CC2)cc1C` (stereo not drawn) [3-{2-[4-(3,4-Dimethyl-phenyl)-piperidin-1-yl]-ethyl}-2,3-dihydro-isoindol-1-one], for which the Ki in experiment [1] amounted to 9.27 nM; in experiment [3] (human D2 receptor, CHO K1 membranes, 0.2 nM [3H]spiperone, 60 min, 25° C., apparent Ki from IC50 (Cheng and Prusoff)), 1210 nM. Regarding `Cc1ccc(N2CCN(CCC3NC(=O)c4ccccc43)CC2)nc1` (stereo not drawn) [3-{2-[4-(5-Methyl-pyridin-2-yl)-piperazin-1-yl]-ethyl}-2,3-dihydro-isoindol-1-one], the Ki in experiment [1] is 22.6 nM; in experiment [3] it was greater than 5880 nM.
